# Test results as given in patent US11986474B1, “Methods for treating heart failure by administering cardiac sarcomere activators” (Cytokinetics, Incorporated, priority 2023, dated 2024).
# Experiments:
# [1] = tested on: patients with heart failure with reduced ejection fraction; assay: GALACTIC-HF phase 3 clinical trial, outcomes by titrated dose group; format: in vivo, human; details: for Hazard Ratio, CV Death / Hazard Ratio, Primary Endpoint: OM vs PBO
# Description: In a phase 3 clinical trial, Global Approach to Lowering Adverse Cardiac Outcomes through Improving Contractility in Heart Failure (GALACTIC-HF), the following dosing regimen was used to assess treatment effect with omecamtiv mecarbil in patients with heart failure with reduced ejection fraction. At the initiation of treatment, a first dose level of 25 mg twice daily was orally administered to subjects randomized to receive omecamtiv mecarbil. At study visit week 2, a predose blood sample was collected. At week 4, subjects with week 2 omecamtiv mecarbil predose plasma concentration of less than 200 ng/mL would increase their dose level to 50 mg twice daily; subjects with week 2 plasma concentrations greater than or about 200 ng/mL but less than 300 ng/mL would increase their dose level to 37.5 mg twice daily; subjects with week 2 plasma concentrations greater than or about 300 ng/mL but less than 1000 ng/mL would maintain a dose level of 25 mg twice daily; and subjects with plasma concentration greater than or about 1000 ng/mL would start administration of placebo twice daily. At weeks 6, a predose blood sample was collected to confirm plasma concentration achieved and assess if changes to the dose should be made. […] The dosing regimen used in the GALACTIC-HF study was associated with reduced risk of heart failure outcomes and a very low incidence of excessive concentrations of omecamtiv mecarbil (e.g., plasma concentration over 1000 ng/mL). Treatment results were described in, for example, Cardiac Myosin Activation with Omecamtiv Mecarbil in Systolic Heart Failure (Teerlink et al., N. Engl. J. Med., 2021, 384; 2) and NCT02929329.
# (§1) In a phase 3 clinical trial, Global Approach to Lowering Adverse Cardiac Outcomes through Improving Contractility in Heart Failure (GALACTIC-HF), all eligible participants were randomized 1:1 to oral administration of either placebo or omecamtiv mecarbil (pharmacokinetic-guided dosing: 25, 37.5 or 50 mg) twice daily. Pre-dose plasma concentrations of omecamtiv mecarbil were measured at weeks 2 and 6 with respective dose adjustments on weeks 4 and 8. The patient and investigator were blinded to the plasma concentrations and dispensed dose.
# (§2) Participants randomized to omecamtiv mecarbil were started at the lowest dose of 25 mg twice daily. […] At the end of Week 8, 28.6% of participants were on 25 mg BID (including participants whose plasma concentration results were not available in time for any dose titration visit or participant compliance with dosing was not affirmatively documented by the investigator), which was higher than the anticipated proportion (4.1%) based on population PK modeling. In participants who completed the dosing algorithm as intended and were titrated to 37.5 or 50 mg BID, mean omecamtiv mecarbil plasma concentrations were higher than those in the 25 mg BID dose group. Participants titrated to doses of 37.5 or 50 mg BID tended to have reduced risk of the primary composite endpoint and cardiovascular death compared to those at a dose of 25 mg BID, as shown in Table 2 below.
# [2] = GALACTIC-HF plasma concentration of omecamtiv mecarbil (PK-guided dosing); format: in vivo; details: Week 8 visit (Week 6 concentration)
# Description: as §1, §2
# A summary of participants by dose group at Week 4 (dose selection determined by the Week 2 concentrations of omecamtiv mecarbil), at Week 8 (dose selection determined by the Week 6 concentrations of omecamtiv mecarbil), and the final dose at Week 12, is provided in Table 3. Overall, the proportions of participants receiving each of the omecamtiv mecarbil doses remained generally consistent over time. At the Week 8 visit, 3.0% of participants had their doses adjusted from 50 to 25 mg BID and 1.1% from 37.5 to 25 mg BID. […]
# [3] = tested on: patients with heart failure with reduced ejection fraction; details: randomized, placebo-controlled phase 3 clinical trial; cited from earlier work
# [4] = tested on: patients with chronic heart failure with reduced ejection fraction; details: cited from earlier work
# [5] = tested on: cardiomyocyte calcium transient; details: cited from earlier work
# [6] = 25 mg BID dose group, Cox Model Adjusting for Significant Baseline Covariates
# [7] = 25 mg BID dose group, Planned Primary Analysis Cox Model
# [8] = 37.5 mg BID dose group, Cox Model Adjusting for Significant Baseline Covariates
# [9] = 37.5 mg BID dose group, Planned Primary Analysis Cox Model
# [10] = 50 mg BID dose group, Cox Model Adjusting for Significant Baseline Covariates
# [11] = 50 mg BID dose group, Planned Primary Analysis Cox Model
# [12] = patients with chronic HFrEF, treatment for 20 weeks
compound,measurement,setting,value
"COC(=O)N1CCN(Cc2cccc(NC(=O)Nc3ccc(C)nc3)c2F)CC1 [omecamtiv mecarbil, methyl 4-(2-fluoro-3-(3-(6-methylpyridin-3-yl)ureido)benzyl)piperazine-1-carboxylate]","Hazard Ratio, CV Death",[1]; [6],1.11
same,"Hazard Ratio, Primary Endpoint",[1]; [6],0.93
same,"Hazard Ratio, CV Death",[1]; [7],1.18
same,"Hazard Ratio, Primary Endpoint",[1]; [7],1.00
same,"Primary Endpoint, participants n/N","[1]; 37.5 mg BID dose group, OM arm","OM (225/602) vs PBO (1,477/3,897)"
same,"Hazard Ratio, CV Death",[1]; [8],0.94
same,"Hazard Ratio, Primary Endpoint",[1]; [8],0.90
same,"Hazard Ratio, CV Death",[1]; [9],1.00
same,"Hazard Ratio, Primary Endpoint",[1]; [9],0.93
same,"Hazard Ratio, CV Death",[1]; [10],0.98
same,"Hazard Ratio, Primary Endpoint",[1]; [10],0.89
same,"Hazard Ratio, CV Death",[1]; [11],0.91
same,"Hazard Ratio, Primary Endpoint",[1]; [11],0.87
same,"participants with down titration due to plasma concentration exceeding 750 ng/mL, number (%)",[2],9 (0.22%)
same,"participants with down titration, plasma concentration in the 750 to <1,000 ng/mL range",[2],8 participants
same,concentration at 6 weeks,"[2]; human, plasma, oral, read-out: plasma concentration of the 1 down-titrated participant above 1,000 ng/mL",1000 ng/mL
same,relative risk of a heart-failure event or death from cardiovascular causes vs placebo,[3],lower relative risk
same,"risk of myocardial ischemic events, ventricular arrhythmias, or death from cardiovascular causes or any cause",[3],without evidence of an increase
same,cardiac performance,"[4]; early clinical studies, short-term intravenous administration",improved
same,plasma concentration above which the risk of cardiac ischemic events is increased,[4]; likely due to shortening of diastole and decreased coronary perfusion,exceeding 1200 ng/mL
same,left ventricular systolic and diastolic volumes,[4]; [12],decreased
same,left ventricular systolic function,[4]; [12],increased
same,natriuretic peptide concentrations and heart rate,[4]; [12],reduced
same,effect on intracellular calcium transients,[5],no effect
